Reference: patent publication US20080269293A1, “PYRAZOLE DERIVATIVES AS ANTI-PLATELET AND ANTI-THROMBOTIC AGENTS” (Pfizer Inc., priority 2006, published 2008)

Target: T1, platelet P2Y1 receptor (Homo sapiens, UniProt P47900)
T1 construct: expressed in transfected cells
Assay: P2Y1 receptor binding assay ([β-33P]-2-thiomethyl ADP)
Conditions: binding of 0.3 nM [β-33P]-2-thiomethyl ADP, hP2Y1 expressing 132N1 cell membrane, 25° C., 60 minutes
Protocol: Conducting P2Y, Receptor Binding Assay
[β−^33P]-2-thiomethyl ADP (2100 Ci/mmol) was purchased from PerkinElmer, Protease Inhibitors Complete, EDTA-free, was purchased from Roche, and ADP (Adenosine diphosphate), MRS2179, and 2-thiomethy ADP (2-Me-S-ADP) were purchased from Sigma Chemical Co.
Binding of 0.3 nM [β-^33P]-2-thiomethyl ADP to platelet P2Y1 receptor in 132N1 cell membrane was carried out in triplicate at 25° C. with 96 well plate (Corning, 3365). Nonspecific binding was defined as binding in the presence of 1 μM of 2-Me-S-ADP. One […] of dimethyl sulfoxide (DMSO) or 1 μL of DMSO (Sigma-Aldrich, 472301) containing a test compound diluted to final assay concentrations of 0.1 nM to 1 mM were placed into each well of a Corning 96-well plate. A volume of 60 μL of buffer: 50 mM Tris pH 7.5 (Sigma, T-2194), 1 mM EDTA (Gibco, 15575-038) and 100 mM NaCl (Gibco, 200740-011) containing 0.3 nM [β-^33P]-2-thiomethyl ADP 40 μL of hP2Y1 expressing 132N1 cell membrane prep was added to each well. After incubation on shaker for 60 minutes, The contents of the wells are filtered and washed 8 times with Tomtec Cell Harvester through UniFilter 96, GF/B plates (PerkinElmer, 6005177) Forty five microliters […] Scintillation cocktail (Ultima-Flo-M) was added into each well and plates counted on a Trilux Microbeta Counter.
• 1. Add 1 μL DMSO or compounds into the wells according to the protocol. • 2. Add 60 μL incubation buffer with [β-^33P]-2-thiomethyl ADP into each well. • 3. Add 40 μL hP2Y1 expressing 132N1 cell membrance prep. Incubate 60 minutes on top of the shaker (IKA Shutter MTS4). • 4. Filter and wash 8× with Tomtec Cell Harvester through UniFilter GF/B plates (PerkinElmer, 6005177). • 5. Add 45 μL scintillation cocktail into each well and plates counted on a Trilux Microbeta Counter.

T1 sequence (P47900 whole entry): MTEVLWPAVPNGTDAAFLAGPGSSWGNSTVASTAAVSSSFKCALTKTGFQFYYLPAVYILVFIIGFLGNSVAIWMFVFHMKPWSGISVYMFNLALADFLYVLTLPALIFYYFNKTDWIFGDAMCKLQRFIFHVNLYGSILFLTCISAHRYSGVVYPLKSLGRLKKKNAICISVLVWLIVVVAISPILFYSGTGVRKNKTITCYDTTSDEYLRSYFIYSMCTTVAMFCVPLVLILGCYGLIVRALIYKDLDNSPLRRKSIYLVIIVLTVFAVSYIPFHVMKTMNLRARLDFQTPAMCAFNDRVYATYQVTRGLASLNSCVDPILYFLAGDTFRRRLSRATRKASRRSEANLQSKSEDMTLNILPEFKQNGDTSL

| SMILES | IC50 [µM] |
| --- | --- |
| O=C(Nc1ccc(OC(F)(F)F)cc1)Nc1ccccc1Oc1ccnn1-c1ccccc1Cl [Example 25, 1-{2-[2-(2-Chloro-phenyl)-2H-pyrazol-3-yloxy]-phenyl}-3-(4-trifluoromethoxy-phenyl)-urea] | 0.268 |
| CC(C)(C)c1ccc(NC(=O)Nc2ccccc2Oc2cc(C(=O)O)nn2-c2ccccc2)cc1 [Example 27, 5-{2-[3-(4-tert-Butyl-phenyl)-ureido]-phenoxy}-1-phenyl-1H-pyrazole-3-carboxylic acid] | 7.22 |
| CCc1cc(Oc2ccccc2NC(=O)Nc2ccc(OC(F)(F)F)cc2)n(-c2ccccc2)n1 [Example 28, 1-[2-(5-Ethyl-2-phenyl-2H-pyrazol-3-yloxy)-phenyl]-3-(4-trifluoromethoxy-phenyl)-urea] | > 10 |
| CC(C)c1cc(Oc2ccccc2NC(=O)Nc2ccc(OC(F)(F)F)cc2)n(-c2ccccc2)n1 [Example 29, 1-[2-(5-Isopropyl-2-phenyl-2H-pyrazol-3-yloxy)-phenyl]-3-(4-trifluoromethoxy-phenyl)-urea] | > 10 |
| Cc1cc(Oc2cc(C)c(F)cc2NC(=O)Nc2ccc(OC(F)(F)F)cc2)n(-c2ccccc2)n1 [Example 30] | 1.24 |
| Cc1cc(Oc2ccc(C#N)cc2NC(=O)Nc2ccc(OC(F)(F)F)cc2)n(-c2ccccc2)n1 [Example 32] | > 10 |
| COc1cccc(Oc2cc(C)nn2-c2ccccc2)c1NC(=O)Nc1ccc(OC(F)(F)F)cc1 [Example 33] | > 10 |
| Cc1cc(Oc2ccccc2NC(=O)Nc2cc(F)ccc2F)n(-c2ccccc2)n1 [Example 34] | 0.8 |
| Cc1cc(Oc2ccccc2NC(=O)Nc2cccc(C(F)(F)F)c2)n(-c2ccccc2)n1 [Example 36] | 1.3 |
| Cc1cc(Oc2ccccc2NC(=O)Nc2cccc(F)c2)n(-c2ccccc2)n1 [Example 38] | 1.91 |
| CSc1ccc(NC(=O)Nc2ccccc2Oc2cc(C)nn2-c2ccccc2)cc1 [Example 39] | 2.22 |
| CCOc1ccc(NC(=O)Nc2ccccc2Oc2cc(C)nn2-c2ccccc2)cc1 [Example 41] | 5.06 |
| COc1ccc(NC(=O)Nc2ccccc2Oc2cc(C)nn2-c2ccccc2)cc1Cl [Example 42] | 6.98 |
| Cc1cc(C)cc(NC(=O)Nc2ccccc2Oc2cc(C)nn2-c2ccccc2)c1 [Example 43] | 7.56 |
| Cc1cc(Oc2ccccc2NC(=O)Nc2ccc(F)c(F)c2F)n(-c2ccccc2)n1 [Example 45] | 8.85 |
| Cc1cc(Oc2ccccc2NC(=O)Nc2cccc(C#N)c2)n(-c2ccccc2)n1 [Example 46] | > 10 |
| Cc1cc(Oc2ccccc2NC(=O)Nc2cc(F)ccc2C)n(-c2ccccc2)n1 [Example 48] | > 10 |
| COc1cc(NC(=O)Nc2ccccc2Oc2cc(C)nn2-c2ccccc2)cc(OC)c1OC [Example 57] | > 10 |
| Cc1cc(Oc2ccccc2NC(=O)Nc2c(C)cccc2C)n(-c2ccccc2)n1 [Example 58] | > 10 |
| Cc1cc(Oc2ccccc2NC(=O)Nc2c(Cl)cccc2C(F)(F)F)n(-c2ccccc2)n1 [Example 59] | > 10 |
| Cc1ccc(NC(=O)Nc2ccccc2Oc2cc(C)nn2-c2ccccc2)c(C)c1 [Example 60] | > 10 |
| Cc1cc(Oc2ccccc2NC(=O)Nc2c(Cl)cccc2Cl)n(-c2ccccc2)n1 [Example 61] | > 10 |
| Cc1cc(Oc2ccccc2NC(=O)Nc2c(C)cccc2Cl)n(-c2ccccc2)n1 [Example 62] | > 10 |
| Cc1cc(Oc2ccccc2NC(=O)Nc2c(C)cccc2C(C)(C)C)n(-c2ccccc2)n1 [Example 77] | > 10 |

Now from value to compound:

| IC50 [µM] | SMILES |
| --- | --- |
| > 10 | Cc1ccc(C)c(NC(=O)Nc2ccccc2Oc2cc(C)nn2-c2ccccc2)c1 [Example 79] |
| > 10 | COc1cc(NC(=O)Nc2ccccc2Oc2cc(C)nn2-c2ccccc2)cc(OC)c1 [Example 80] |
| > 10 | Cc1cc(Oc2ccccc2NC(=O)Nc2ccccc2Br)n(-c2ccccc2)n1 [Example 82] |
| 3.39 | CCOC(=O)C(C)(C)c1ccc(NC(=O)Nc2ccccc2Oc2cc(C)nn2-c2ccccc2Cl)cc1 [Example 83, 2-[4-(3-{2-[2-(2-Chloro-phenyl)-5-methyl-2H-pyrazol-3-yloxy]-phenyl}-ureido)-phenyl]-2-methyl-propionic acid ethyl ester] |
| > 10 | Cc1cc(Oc2ccccc2NC(=O)Nc2ccc(C(C)(C)C(=O)O)cc2)n(-c2ccccc2Cl)n1 [Example 84, 2-[4-(3-{2-[2-(2-Chloro-phenyl)-5-methyl-2H-pyrazol-3-yloxy]-phenyl}-ureido)-phenyl]-2-methyl-propionic acid] |
| > 10 | Cc1cc(Oc2ccccc2NC(=O)Nc2ccc(C(C)(C)CO)cc2)n(-c2ccccc2Cl)n1 [Example 85, 1-{2-[2-(2-Chloro-phenyl)-5-methyl-2H-pyrazol-3-yloxy]-phenyl}-3-[4-(2-hydroxy-1,1-dimethyl-ethyl)-phenyl]-urea] |
| 5.06 | COC(=O)c1ccc(NC(=O)Nc2ccccc2Oc2cc(C)nn2-c2ccccc2Cl)cc1 [Example 86, 4-(3-{2-[2-(2-Chloro-phenyl)-5-methyl-2H-pyrazol-3-yloxy]-phenyl}-ureido)-benzoic acid methyl ester] |
| > 10 | Cc1cc(Oc2ccccc2NC(=O)Nc2ccc(CO)cc2)n(-c2ccccc2Cl)n1 [Example 87, 1-{2-[2-(2-Chloro-phenyl)-5-methyl-2H-pyrazol-3-yloxy]-phenyl}-3-(4-hydroxymethyl-phenyl)-urea] |
| 0.149 | Cc1cc(Oc2ccccc2NC(=O)Nc2ccc(OC(F)(F)F)cc2)n(-c2cccc(Cl)c2F)n1 [Example 88, 1-{2-[2-(3-Chloro-2-fluoro-phenyl)-5-methyl-2H-pyrazol-3-yloxy]-phenyl}-3-(4-trifluoromethoxy-phenyl)-urea] |
| 0.054 | Cc1cc(Oc2ccccc2NC(=O)Nc2ccc(C3CCCCC3)cc2)n(-c2ccccc2Cl)n1 [Example 89, 1-{2-[2-(2-Chloro-phenyl)-5-methyl-2H-pyrazol-3-yloxy]-phenyl}-3-(4-cyclohexyl-phenyl)-urea] |
| 0.087 | CCc1ccccc1-n1nc(C)cc1Oc1ccccc1NC(=O)Nc1ccc(-c2ccccc2)cc1 [Example 91, 1-(4-(phenyl)phenyl)-3-(2-(1-(2-ethylphenyl)-3-methyl-1H-pyrazol-5-yloxy)phenyl)urea] |
| 0.182 | CCc1ccccc1-n1nc(C)cc1Oc1ccccc1NC(=O)Nc1ccc(Oc2ccccc2)cc1 [Example 92, 1-(2-(1-(2-ethylphenyl)-3-methyl-1H-pyrazol-5-yloxy)phenyl)-3-(4-phenoxyphenyl)urea] |
| 0.123 | CCc1ccccc1-n1nc(C)cc1Oc1ccccc1NC(=O)Nc1ccc(C(F)(F)F)cc1F [Example 93, 1-(2-(1-(2-ethylphenyl)-3-methyl-1H-pyrazol-5-yloxy)phenyl)-3-(2-fluoro-4-(trifluoromethyl)phenyl)urea] |
| 8.78 | CCc1ccccc1-n1nc(C)cc1Oc1ccccc1NC(=O)Nc1ccc(OC(F)(F)F)cc1Cl [Example 94, 1-(2-chloro-4-(trifluoromethoxy)phenyl)-3-(2-(1-(2-ethylphenyl)-3-methyl-1H-pyrazol-5-yloxy)phenyl)urea] |
| 0.689 | CCc1ccccc1-n1nc(C)cc1Oc1ccccc1NC(=O)Nc1ccccc1 [Example 95, 1-(2-(1-(2-ethylphenyl)-3-methyl-1H-pyrazol-5-yloxy)phenyl)-3-phenylurea] |
